Data taken from patent EP4818157A1, “N-SUBSTITUTED CYCLIC AMIDE COMPOUND” (Kissei Pharmaceutical Co., Ltd., priority 2023, dated 2025).

Target: T1, human TSHR (Homo sapiens, UniProt P16473)
T1 construct: expressed in transfected cells
Assay: Measurement of antagonist activity using TSH-induced cAMP production in human TSHR-stably expressing CHO cells
Assay type: cell-based
Conditions: human TSH final concentration 50 ng/mL
Experimental: Measurement of Antagonist Activity Using TSH-induced cAMP Production in Human TSHR-stably Expressing CHO Cells as an Indicator
A gene sequence of human TSHR (reference number NM_000369.2) was inserted into a multiple cloning site of pcDNA3.1(+). The prepared plasmid vector was introduced into CHO cells by a lipofection method to establish human TSHR stably expressing CHO cells. The obtained cells were seeded in a poly-D-lysine-coated 96-well plate at 5 x 10^4 cells/well, and cultured for 1 day in F12 medium containing 10% FBS, 400 µg/mL G418, 50 U/mL penicillin, and 50 µg/mL streptomycin under conditions of 37°C and 5% CO2. After removing a medium, the cells were washed twice with 100 µL per well of an assay buffer (Hanks' Balanced Salt Solution containing 20 mM HEPES and 1 mM IBMX). 30 µL of an assay buffer containing a test compound was added to a well, and the mixture was incubated at room temperature for 15 minutes. Next, 30 µL of an assay buffer containing human TSH (R&D Systems, Inc., final concentration 50 ng/mL) was added, and the mixture was incubated at 37°C for 1 hour. The supernatant was removed, and Lysis and Detection Buffer 2 (Cisbio) was added to prepare a cell lysate by incubating at room temperature for 1 hour. According to the instructions for use of a cAMP Gs HiRange kit (Cisbio), a cell lysate was reacted with d2-labeled cAMP and an anti-cAMP Europium Cryptate labeled antibody (Cisbio) in a 384-well white microplate. Next, a fluorescence intensity ratio (measurement wavelengths 665 nm/620 nm) was measured using a multiplate reader (PHERAstar FSX, BMG LABTECH Japan). A fluorescence intensity ratio of each sample was converted into a cAMP content using a standard curve. A cAMP content was converted into a percentage of a control value, and a cAMP production rate was calculated. Using Prism (Graph Pad Software Inc.), a cAMP production rate was plotted against a test compound concentration, and an IC50 value was calculated. The IC50 of each test compound is shown in the above tables. In the tables, IC50 < 3.0 µM was denoted as A, and 3.0 µM ≤ IC50 < 30 µM was denoted as B. The case where activity was observed but an IC50 value could not be calculated was denoted as C.

T1 sequence (P16473 21-764): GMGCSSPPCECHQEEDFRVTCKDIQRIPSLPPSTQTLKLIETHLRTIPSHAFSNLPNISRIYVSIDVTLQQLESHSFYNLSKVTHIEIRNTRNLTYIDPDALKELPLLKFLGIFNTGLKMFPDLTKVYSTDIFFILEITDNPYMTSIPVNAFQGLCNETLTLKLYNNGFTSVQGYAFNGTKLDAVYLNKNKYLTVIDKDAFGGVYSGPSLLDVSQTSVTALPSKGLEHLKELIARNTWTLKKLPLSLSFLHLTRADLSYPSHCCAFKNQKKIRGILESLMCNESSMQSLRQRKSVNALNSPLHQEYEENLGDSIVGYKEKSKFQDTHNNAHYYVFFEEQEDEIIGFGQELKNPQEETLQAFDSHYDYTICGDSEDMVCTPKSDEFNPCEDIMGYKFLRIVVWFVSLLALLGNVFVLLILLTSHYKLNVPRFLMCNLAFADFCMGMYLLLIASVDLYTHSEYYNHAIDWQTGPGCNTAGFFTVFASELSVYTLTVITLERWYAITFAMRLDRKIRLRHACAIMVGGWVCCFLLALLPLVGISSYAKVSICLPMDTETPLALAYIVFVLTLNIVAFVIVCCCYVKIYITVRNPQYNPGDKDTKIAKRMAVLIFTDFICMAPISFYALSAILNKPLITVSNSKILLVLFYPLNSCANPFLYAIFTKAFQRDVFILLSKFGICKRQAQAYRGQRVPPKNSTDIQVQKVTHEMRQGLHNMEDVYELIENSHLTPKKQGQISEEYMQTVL

SMILES	IC50 [µM]
N#Cc1ccc(NC(N)=O)c(=O)n1Cc1cc(C(F)(F)F)ccc1F [Example B-7, 1-(6-cyano-1-(2-fluoro-5-(trifluoromethyl)benzyl)-2-oxo-1,2-dihydropyridin-3-yl)urea]	< 3
Cc1cnc(NC(N)=O)c(=O)n1Cc1cc(C(F)(F)F)cc(Cl)c1F [Example B-9, 1-(4-(3-chloro-2-fluoro-5-(trifluoromethyl)benzyl)-5-methyl-3-oxo-3,4-dihydropyrazin-2-yl)urea]	3 to 30
NC(=O)N[C@@H]1C[C@H](F)CN(Cc2cc(C(F)(F)F)ccc2F)C1=O [Example A-18, 1-((3R,5S)-5-fluoro-1-(2-fluoro-5-(trifluoromethyl)benzyl)-2-oxopiperidin-3-yl)urea]	> 30
NC(=O)Nc1cc(C(F)(F)F)cn(Cc2cc(C(F)(F)F)ccc2F)c1=O [Example B-6, 1-(1-(2-fluoro-5-(trifluoromethyl)benzyl)-2-oxo-5-(trifluoromethyl)-1,2-dihydropyridin-3-yl)urea]	< 3
C[C@@H]1CC[C@@H](NC(N)=O)C(=O)N1Cc1cc(C(F)(F)F)ccc1F [Example A-13, 1-((3R,6R)-1-(2-fluoro-5-(trifluoromethyl)benzyl)-6-methyl-2-oxopiperidin-3-yl)urea]	< 3
NC(=O)Nc1cc(Br)cn(Cc2cc(C(F)(F)F)ccc2F)c1=O [Example B-1, 1-(5-bromo-1-(2-fluoro-5-(trifluoromethyl)benzyl)-2-oxo-1,2-dihydropyridin-3-yl)urea]	< 3
Cc1ccc(NC(=O)NC2CC2)c(=O)n1Cc1cc(C(F)(F)F)cc(Cl)c1F [Example B-11, 1-(1-(3-chloro-2-fluoro-5-(trifluoromethyl)benzyl)-6-methyl-2-oxo-1,2-dihydropyridin-3-yl)-3-cyclopropylurea]	< 3
Cc1cccc(CN2C(=O)[C@H](NC(N)=O)Cc3ccccc32)c1 [Example C-1, (R)-1-(1-(3-methylbenzyl)-2-oxo-1,2,3,4-tetrahydroquinolin-3-yl)urea]	3 to 30
CNC(=O)Nc1ccc(C)n(Cc2cc(C(F)(F)F)cc(Cl)c2F)c1=O [Example B-10, 1-(1-(3-chloro-2-fluoro-5-(trifluoromethyl)benzyl)-6-methyl-2-oxo-1,2-dihydropyridin-3-yl)-3-methylurea]	< 3
NC(=O)N[C@@H]1CC[C@@H](C(F)(F)F)N(Cc2cc(C(F)(F)F)ccc2F)C1=O [Example A-14, 1-((3R,6S)-1-(2-fluoro-5-(trifluoromethyl)benzyl)-2-oxo-6-(trifluoromethyl)piperidin-3-yl)urea]	< 3
NC(=O)N[C@@H]1Cc2cscc2N(Cc2cccc(C(F)(F)F)c2)C1=O [Example C-22, (R)-1-(2-oxo-1-(3-(trifluoromethyl)benzyl)-1,2,3,4-tetrahydrothieno[3,4-b]pyridin-3-yl)urea]	< 3
NC(=O)CC1Oc2ccccc2N(Cc2cc(C(F)(F)F)ccc2F)C1=O (centres unmarked) [Example F-7, 2-(4-(2-fluoro-5-(trifluoromethyl)benzyl)-3-oxo-3,4-dihydro-2H-benzo[b][1,4]oxazin-2-yl)acetamide]	> 30
C[C@H]1CC[C@@H](NC(N)=O)C(=O)N1CCc1cccc(C(F)(F)F)c1 (relative stereo) [Example A-23, 1-((3R^*,6S^*)-6-methyl-2-oxo-1-(3-(trifluoromethyl)phenethyl)piperidin-3-yl)urea]	3 to 30
C[C@@H]1CC[C@@H](NC(N)=O)C(=O)N1Cc1cc(C(F)F)ccc1F (relative stereo) [Example A-2, 1-((3R^*,6R^*)-1-(5-(difluoromethyl)-2-fluorobenzyl)-6-methyl-2-oxopiperidin-3-yl)urea]	< 3
Cc1ccc(NC(N)=O)c(=O)n1Cc1cc(C(F)(F)F)ccc1F [Example B-4, 1-(1-(2-fluoro-5-(trifluoromethyl)benzyl)-6-methyl-2-oxo-1,2-dihydropyridin-3-yl)urea]	< 3
NC(=O)N[C@@H]1Cc2ccc(F)cc2N(Cc2cc(C(F)F)ccc2F)C1=O [Example C-11, (R)-1-(1-(5-(difluoromethyl)-2-fluorobenzyl)-7-fluoro-2-oxo-1,2,3,4-tetrahydroquinolin-3-yl)urea]	< 3
NC(=O)N[C@@H]1Cc2ccc(C(F)F)cc2N(Cc2cc(C(O)(C(F)(F)F)C(F)(F)F)ccc2F)C1=O [Example C-20, (R)-1-(7-(difluoromethyl)-1-(2-fluoro-5-(1,1,1,3,3,3-hexafluoro-2-hydroxypropan-2-yl)benzyl)-2-oxo-1,2,3,4-tetrahydroquinolin-3-yl)urea]	< 3
C[C@@H]1CC[C@@H](NC(N)=O)C(=O)N1Cc1cc(C#Cc2ccccc2)ccc1F (relative stereo) [Example A-7, 1-((3R^*,6R^*)-1-(2-fluoro-5-(phenylethynyl)benzyl)-6-methyl-2-oxopiperidin-3-yl)urea]	< 3
C[C@@H]1CC[C@@H](NC(N)=O)C(=O)N1Cc1cc(C#Cc2ccncc2)ccc1F (relative stereo) [Example A-8, 1-((3R^*,6R^*)-1-(2-fluoro-5-(pyridin-4-ylethynyl)benzyl)-6-methyl-2-oxopiperidin-3-yl)urea]	< 3
N#Cc1cccc(CN2C(=O)[C@H](NC(N)=O)Cc3ccccc32)c1 [Example C-2, (R)-1-(1-(3-cyanobenzyl)-2-oxo-1,2,3,4-tetrahydroquinolin-3-yl)urea]	> 30
CC(C)(C)OC(=O)NCCc1cc(NC(N)=O)c(=O)n(Cc2cc(C(F)(F)F)ccc2F)c1 [Example B-3, tert-butyl (2-(1-(2-fluoro-5-(trifluoromethyl)benzyl)-6-oxo-5-ureido-1,6-dihydropyridin-3-yl)ethyl)carbamate]	< 3
NC(=O)Nc1cc(CCC(=O)O)cn(Cc2cc(C(F)(F)F)ccc2F)c1=O [Example B-2, 3-(1-(2-fluoro-5-(trifluoromethyl)benzyl)-6-oxo-5-ureido-1,6-dihydropyridin-3-yl)propanoic acid]	> 30
NC(=O)N[C@@H]1Cc2ccccc2N(Cc2cc(C(F)F)ccc2F)C1=O [Example C-4, (R)-1-(1-(5-(difluoromethyl)-2-fluorobenzyl)-2-oxo-1,2,3,4-tetrahydroquinolin-3-yl)urea]	< 3

Further lines, results first:

IC50 [µM]	SMILES
< 3	Cc1ccc(NC(=O)N2CCC2)c(=O)n1Cc1cc(C(F)(F)F)cc(Cl)c1F [Example E-9, N-(1-(3-chloro-2-fluoro-5-(trifluoromethyl)benzyl)-6-methyl-2-oxo-1,2-dihydropyridin-3-yl)azetidine-1-carboxamide]
< 3	CC(C)(C)NC(=O)Nc1ccc2c(c1)nc(NC(N)=O)c(=O)n2Cc1cc(C(F)(F)F)ccc1F [Example F-9, 1-(tert-butyl)-3-(1-(2-fluoro-5-(trifluoromethyl)benzyl)-2-oxo-3-ureido-1,2-dihydroquinoxalin-6-yl)urea]
< 3	COCc1ccc(NC(N)=O)c(=O)n1Cc1cc(C(F)(F)F)cc(Cl)c1F [Example E-2, 1-(1-(3-chloro-2-fluoro-5-(trifluoromethyl)benzyl)-6-(methoxymethyl)-2-oxo-1,2-dihydropyridin-3-yl)urea]
3 to 30	NC(=O)N[C@@H]1CC[C@@H]2CC[C@@H](Cc3ccccc3C(F)(F)F)N2C1=O [Example D-3, 1-((3S,6R,8aR)-5-oxo-3-(2-(trifluoromethyl)benzyl)octahydroindolizin-6-yl)urea]
> 30	CC(=O)NC[C@@H]1CC[C@@H](NC(N)=O)C(=O)N1Cc1cc(C(F)(F)F)ccc1F [Example D-8, N-(((2S,5R)-1-(2-fluoro-5-(trifluoromethyl)benzyl)-6-oxo-5-ureidopiperidin-2-yl)methyl)acetamide]
3 to 30	NC(=O)N[C@@H]1Cc2ccc(C(F)F)cc2N(Cc2cc(C(F)(F)F)ccc2CO)C1=O [Example F-1, (R)-1-(7-(difluoromethyl)-1-(2-(hydroxymethyl)-5-(trifluoromethyl)benzyl)-2-oxo-1,2,3,4-tetrahydroquinolin-3-yl)urea]
< 3	C=CCc1ccc(NC(N)=O)c(=O)n1Cc1cc(C(F)(F)F)cc(Cl)c1F [Example E-5, 1-(6-allyl-1-(3-chloro-2-fluoro-5-(trifluoromethyl)benzyl)-2-oxo-1,2-dihydropyridin-3-yl)urea]
< 3	NC(=O)N[C@@H]1Cc2sccc2N(Cc2cc(C(F)(F)F)ccc2F)C1=O [Example F-5, (R)-1-(4-(2-fluoro-5-(trifluoromethyl)benzyl)-5-oxo-4,5,6,7-tetrahydrothieno[3,2-b]pyridin-6-yl)urea]
3 to 30	NC(=O)N[C@@H]1CC[C@@H](CO)N(Cc2cc(C(F)(F)F)ccc2F)C1=O [Example D-4, 1-((3R,6S)-1-(2-fluoro-5-(trifluoromethyl)benzyl)-6-(hydroxymethyl)-2-oxopiperidin-3-yl)urea]
